Data from article PMC9721025, “Pharmacokinetic study of the main components of Tanreqing capsules and Tanreqing injections in beagles by liquid chromatography–tandem mass spectrometry” (Chinese Medicine, 2022).
Read-outs that look alike come from different tables or passages of the source.

Key:
[1] = Tanreqing injection, cited from earlier work
[2] = Pharmacokinetics in beagles, multiple-dose regimen (once per day for 7 days) of TRQI or TRQC, plasma LC-MS/MS; format: in vivo; settings: beagle, dog
Procedure: (§1) 100 μL plasma sample was drawn and transferred to 1.5 mL centrifuge tube prior to 300 μL protein precipitant (3:1 [v/v] methanol/acetonitrile, containing 0.1% formic acid and 100 ng/mL IS) was added, and then the sample was vortex-mixed for 3 min. The mixture was centrifuged at 20,000 ×g for 10 min, and 100 μL supernatant was transferred to the injection vial and analyzed directly by LC–MS/MS.
(§2) This study was carried out in six beagles (three males and three females, 9.0–12.0 kg each), that were purchased from Junda Pet Hospital (Shanghai, China). This experimental protocol was approved by the Experimental Animal Ethics Committee of the Naval Military Medical University (Shanghai, China).
After the end of the single-dose experiment, the dogs in group one were given 0.5 mL/kg injection of TRQI once per day for 7 days following the wash out period, and the dogs in group two were given 0.09 g/kg TRQC once per day for 7 days. After the seventh administration, blood samples were collected at 0, 10, 20, and 40 min and then at 1, 1.5, 2, 2.5, 3, 4, 6, 8, 12, and 24 h (a total of 14 time points) and were processed as described in “Single-dose regimen” section. The resulting plasma samples were used to determine the steady-state plasma concentration of TRQI and TRQC. A crossover study was again carried out in both groups, as described in “Single-dose regimen” section, after a 7-day washing period.
(§3) All data obtained were analyzed using Drug and Statistics (DAS) 2.0 software (Chinese Society of Pharmacology), and a non-compartment analysis was used to calculate plasma pharmacokinetic parameters. The principal components of TRQI and TRQC were compared with an analysis of variance (ANOVA) and/or a two-tailed student-t test.

[3] = Stability of analytes in dog plasma (QC samples); format: in vitro ADME
Procedure: The stock solutions of all analytes were further mixed and diluted with methanol/water (10:90, v/v) solution to prepare the working solutions. […] The QC samples were stored in a refrigerator at – 80 °C until retrieval (see Additional file 1). The stability, which includes short-term stability (6 h at room temperature), long-term stability (− 80 °C for 30 days in the refrigerator), and freeze–thaw stability (three cycles from − 80 °C to room temperature), were assessed using QC samples at three concentration levels in three replicates. […] Similarly, there were no obvious effects on the analysis results of the samples with respect to short-term stability or long-term storage.

[4] = Pharmacokinetics in beagles, single-dose regimen of TRQI (i.v.) or TRQC (oral), plasma LC-MS/MS; format: in vivo, beagle; settings: for AUC(0-t) / Cmax / Tmax / half-life: beagle, dog, plasma; for AUC(0-t): read-out: AUC0–24 h; for Cmax / Tmax / half-life: mean of six beagles
Procedure: as §1, §2
The six healthy beagles were divided into two groups: beagles 1–3 were all male and were assigned to the first group, and beagles 4–6 were all females and assigned to the second group. The two-cycle, crossover study was designed with a 7-day wash out period. For the single-administration process, the dogs in the first group were injected intravenously with 0.5 mL/kg TRQI (one-third of the normal daily dose), and blood samples were collected at 0, 5, 10, 15, 20, 30, and 45 min and then at 1, 2, 4, 6, 8, 12, and 24 h (a total of 14 time points) after injection. For each blood sample, 1 mL of blood was collected from the forelimb vein in heparin-treated tubes. The dogs in the second group were orally administrated 0.09 g/kg TRQC (one-third of the normal daily dose, and blood samples were collected in the same manner at 0, 10, 20, and 40 min and then at 1, 1.5, 2, 2.5, 3, 4, 6, 8, 12, and 24 h (a total of 14 time points). All blood samples were centrifuged at 4000 × g for 5 min, and each supernatant was collected and aliquoted. After a 7-day wash out period, the dogs in each group were administrated the other Tanreqing formulation in a crossover design, and blood samples were collected and processed in the same way.
as §3

[5] = both sexes, iv, TRQI 0.5 mL/kg once per day for 7 days, mean
[6] = both sexes, po, TRQC 0.09 g/kg once per day for 7 days, mean
[7] = n = 3, high QC: nominal 200 ng/mL baicalin, 1000 ursodeoxycholic acid, 100 chenodeoxycholic acid and chlorogenic acid
[8] = n = 3, low QC: nominal 4 ng/mL baicalin, 20 ursodeoxycholic acid, 2 chenodeoxycholic acid and chlorogenic acid
[9] = n = 3, middle QC: nominal 20 ng/mL baicalin, 100 ursodeoxycholic acid, 10 chenodeoxycholic acid and chlorogenic acid
[10] = both sexes, iv, single i.v. dose of TRQI 0.5 mL/kg
[11] = both sexes, single oral dose of TRQC 0.09 g/kg

For `C[C@H](CCC(=O)O)[C@H]1CC[C@H]2[C@@H]3[C@@H](O)C[C@@H]4C[C@H](O)CC[C@]4(C)[C@H]3CC[C@]12C` [Ursodeoxycholic acid, ursodeoxycholic acid], the t1/2 ([1]; Hu's study) is given as 0.933 h, the t1/2 ([1]; another study) is given as 0.233 h and the AUC(0-inf) ([2]; both sexes, iv, 0.5 mL/kg, TRQI 0.5 mL/kg for 7 days, Mean) is given as 19100 ng·h/mL. For the same molecule, the AUC(0-t) ([2]; both sexes, iv, 0.5 mL/kg, TRQI 0.5 mL/kg for 7 days, Mean, read-out: AUC0–24 h) was 16400 ng·h/mL, the Cmax at 7 days [2, 5] was 5060 ng/mL and the half-life at 7 days [2, 5] was 6.84 h. For the same molecule, the AUC(0-inf) ([2]; both sexes, po, 0.09 g/kg, TRQC 0.09 g/kg for 7 days, Mean) was 35300 ng·h/mL, the AUC(0-t) ([2]; both sexes, po, 0.09 g/kg, TRQC 0.09 g/kg for 7 days, Mean, read-out: AUC0–24 h) was 28500 ng·h/mL and the Cmax at 7 days [2, 6] was 3400 ng/mL. It also gave a Tmax at 7 days [2, 6] of 5.69 h, a half-life at 7 days [2, 6] of 12 h and an AUC(0-inf) ([2]; female, iv, 0.5 mL/kg, TRQI 0.5 mL/kg for 7 days, beagle No. 4) of 14900 ng·h/mL. It also gave an AUC(0-t) ([2]; female, iv, 0.5 mL/kg, TRQI 0.5 mL/kg for 7 days, beagle No. 4, read-out: AUC0–24 h) of 4740 ng·h/mL, an AUC(0-inf) ([2]; female, iv, 0.5 mL/kg, TRQI 0.5 mL/kg for 7 days, beagle No. 5) of 4220 ng·h/mL and an AUC(0-t) ([2]; female, iv, 0.5 mL/kg, TRQI 0.5 mL/kg for 7 days, beagle No. 5, read-out: AUC0–24 h) of 2560 ng·h/mL. The AUC(0-inf) ([2]; female, iv, 0.5 mL/kg, TRQI 0.5 mL/kg for 7 days, beagle No. 6) was 2810 ng·h/mL, the AUC(0-t) ([2]; female, iv, 0.5 mL/kg, TRQI 0.5 mL/kg for 7 days, beagle No. 6, read-out: AUC0–24 h) was 2670 ng·h/mL and the AUC(0-inf) ([2]; female, po, 0.09 g/kg, TRQC 0.09 g/kg for 7 days, beagle No. 4) was 112000 ng·h/mL. It also gave an AUC(0-t) ([2]; female, po, 0.09 g/kg, TRQC 0.09 g/kg for 7 days, beagle No. 4, read-out: AUC0–24 h) of 109000 ng·h/mL, an AUC(0-inf) ([2]; female, po, 0.09 g/kg, TRQC 0.09 g/kg for 7 days, beagle No. 5) of 20100 ng·h/mL and an AUC(0-t) ([2]; female, po, 0.09 g/kg, TRQC 0.09 g/kg for 7 days, beagle No. 5, read-out: AUC0–24 h) of 10500 ng·h/mL. It also gave an AUC(0-inf) ([2]; female, po, 0.09 g/kg, TRQC 0.09 g/kg for 7 days, beagle No. 6) of 45000 ng·h/mL, an AUC(0-t) ([2]; female, po, 0.09 g/kg, TRQC 0.09 g/kg for 7 days, beagle No. 6, read-out: AUC0–24 h) of 17600 ng·h/mL and an AUC(0-inf) ([2]; male, iv, 0.5 mL/kg, TRQI 0.5 mL/kg for 7 days, beagle No. 1) of 75900 ng·h/mL. The AUC(0-t) ([2]; male, iv, 0.5 mL/kg, TRQI 0.5 mL/kg for 7 days, beagle No. 1, read-out: AUC0–24 h) was 72400 ng·h/mL, the AUC(0-inf) ([2]; male, iv, 0.5 mL/kg, TRQI 0.5 mL/kg for 7 days, beagle No. 2) was 1860 ng·h/mL and the AUC(0-t) ([2]; male, iv, 0.5 mL/kg, TRQI 0.5 mL/kg for 7 days, beagle No. 2, read-out: AUC0–24 h) was 1720 ng·h/mL. For the same molecule, the AUC(0-inf) ([2]; male, iv, 0.5 mL/kg, TRQI 0.5 mL/kg for 7 days, beagle No. 3) was 14600 ng·h/mL, the AUC(0-t) ([2]; male, iv, 0.5 mL/kg, TRQI 0.5 mL/kg for 7 days, beagle No. 3, read-out: AUC0–24 h) was 14500 ng·h/mL and the AUC(0-inf) ([2]; male, po, 0.09 g/kg, TRQC 0.09 g/kg for 7 days, beagle No. 1) was 2940 ng·h/mL. For the same molecule, the AUC(0-t) ([2]; male, po, 0.09 g/kg, TRQC 0.09 g/kg for 7 days, beagle No. 1, read-out: AUC0–24 h) was 2760 ng·h/mL, the AUC(0-inf) ([2]; male, po, 0.09 g/kg, TRQC 0.09 g/kg for 7 days, beagle No. 2) was 24400 ng·h/mL and the AUC(0-t) ([2]; male, po, 0.09 g/kg, TRQC 0.09 g/kg for 7 days, beagle No. 2, read-out: AUC0–24 h) was 23900 ng·h/mL. For the same molecule, the AUC(0-inf) ([2]; male, po, 0.09 g/kg, TRQC 0.09 g/kg for 7 days, beagle No. 3) was 7520 ng·h/mL, the AUC(0-t) ([2]; male, po, 0.09 g/kg, TRQC 0.09 g/kg for 7 days, beagle No. 3, read-out: AUC0–24 h) was 7190 ng·h/mL and the “Freeze-thaw stability (3 cycles) Mean ± S.D. concentration” value (shortened to “Freeze-thaw stability”) [3, 7] was 1048.41 ± 75.10 ng/mL. For the same molecule, the “Long-term stability (30 days at – 80 °C) Mean ± S.D. concentration” value (“Long-term stability” for short) [3, 7] was 1081.75 ± 20.70 ng/mL, the “Short-term stability (6 h at room temperature) Mean ± S.D concentration” value (from here on “Short-term stability”) [3, 7] was 1104.46 ± 16.75 ng/mL and the “Freeze-thaw stability” value [3, 8] was 18.47 ± 1.66 ng/mL. The “Long-term stability” value [3, 8] was 18.77 ± 0.41 ng/mL, the “Short-term stability” value [3, 8] was 19.38 ± 0.97 ng/mL and the “Freeze-thaw stability” value [3, 9] was 87.08 ± 1.95 ng/mL. For the same molecule, the “Long-term stability” value [3, 9] was 90.80 ± 1.57 ng/mL, the “Short-term stability” value [3, 9] was 97.83 ± 0.62 ng/mL and the “time at which oral absorption reached a peak” value ([4]; TRQC, oral, dogs) was ~5 h. The AUC(0-t) ([4]; both sexes, iv, 0.5 mL/kg, single TRQI 0.5 mL/kg, Mean) was 4080 ng·h/mL, the Cmax [4, 10] was 2750 ng/mL and the Tmax [4, 10] was 0.08 h. The half-life [4, 10] was 27.7 h, the AUC(0-t) ([4]; both sexes, po, 0.09 g/kg, single TRQCs 0.09 g/kg, Mean) was 4400 ng·h/mL and the Cmax [4, 11] was 1330 ng/mL. For the same molecule, the Tmax [4, 11] was 5.94 h, the half-life [4, 11] was 10.4 h and the AUC(0-t) ([4]; female, iv, 0.5 mL/kg, single TRQI 0.5 mL/kg, beagle No 4) was 898 ng·h/mL. For the same molecule, the AUC(0-t) ([4]; female, iv, 0.5 mL/kg, single TRQI 0.5 mL/kg, beagle No 5) was 1160 ng·h/mL, the AUC(0-t) ([4]; female, iv, 0.5 mL/kg, single TRQI 0.5 mL/kg, beagle No 6) was 992 ng·h/mL and the AUC(0-t) ([4]; female, po, 0.09 g/kg, single TRQCs 0.09 g/kg, beagle No 4) was 11300 ng·h/mL. It also gave an AUC(0-t) ([4]; female, po, 0.09 g/kg, single TRQCs 0.09 g/kg, beagle No 5) of 1880 ng·h/mL, an AUC(0-t) ([4]; female, po, 0.09 g/kg, single TRQCs 0.09 g/kg, beagle No 6) of 3700 ng·h/mL and an AUC(0-t) ([4]; male, iv, 0.5 mL/kg, single TRQI 0.5 mL/kg, beagle No 1) of 18200 ng·h/mL. It also gave an AUC(0-t) ([4]; male, iv, 0.5 mL/kg, single TRQI 0.5 mL/kg, beagle No 2) of 1100 ng·h/mL, an AUC(0-t) ([4]; male, iv, 0.5 mL/kg, single TRQI 0.5 mL/kg, beagle No 3) of 2120 ng·h/mL and an AUC(0-t) ([4]; male, po, 0.09 g/kg, single TRQCs 0.09 g/kg, beagle No 1) of 1700 ng·h/mL. For the same molecule, the AUC(0-t) ([4]; male, po, 0.09 g/kg, single TRQCs 0.09 g/kg, beagle No 2) was 3190 ng·h/mL and the AUC(0-t) ([4]; male, po, 0.09 g/kg, single TRQCs 0.09 g/kg, beagle No 3) was 4590 ng·h/mL.
